The subject of assay [1] is streptozotocin-induced diabetic rats. Description: Chronic oral treatment of streptozotocin (45 mg/kg) diabetic rats, glycemia. Type of assay: in vivo, rat. The settings on record: for glycemia during chronic oral treatment: daily oral, 17 days (5 then 10 μmol/kg/day), STZ 45 mg/kg rats. As for the experimental part: (§1) Male Wistar rats weighting 180-220 g were purchased from Harlan (Interfauna Ibèrica S.A., Spain). Diabetes was induced by a single intraperitoneal injection of a freshly prepared solution of streptozotocin (in some studies the dose was 45 mg/kg body weight and in some others 100 mg/kg body weight dissolved in 50 mM citrate buffer, pH 4.5). Only diabetic animals with glycemia above 300 mg/dl were used. The animals were housed in animal quarters at 22° C., with a 12 h light/12 h dark cycle and were fed ad libitum. All procedures used were approved by the animal ethical committee of the University of Barcelona, Spain. Male mice C57 BL/Ks bearing the db/db mutation (Jackson Laboratories, Bar Harbor, Me.) were purchased from Harlan France (Gannat, France). C57BL/6J male mice were assigned for 16 weeks to very high-fat diet containing (in kcal): 72% from fat, 28% from proteins and <1% from carbohydrates (Burcelin et al., 2002, Am. J. Physiol. Endocrinol. Metab 282: E834-E842).
(§2) Osmotic minipumps delivering B6V10 (2.5 μmol/kg body wt/day) or decavanadate (2.5 μmol/kg body wt/day) were implanted subcutaneously in diabetic rats anaesthetised by ketamine hydrochloride (95 mg/kg) and xylasine (10 mg/kg). […] Glycemia was measured on arterio-venous blood collected from the tail vessels at 09:00 am for two weeks, before the administration of vanadate. Insulin concentrations were determined before and after treatment. In another set of experiments, B6V10 was orally administered at a single dose of 5 μmol/kg/day during the first week and 10 μmol/kg/day during 2 additional weeks by gastric gavage. A control group received the corresponding decavanadate salt in the absence of benzylamine. At the end of the treatment, animals were sacrificed and the liver, fat pad, heart and lung were kept at −80° C. and the plasma at −20° C. until their use for in vitro analysis.
(§3) In glucose tolerance tests and in chronic treatments, circulating glucose concentrations were determined by a rapid glucose analyser (Accutrend® Sensor Comfort, Roche, Basel. Switzerland). Plasma insulin (IRI) concentration was determined by ELISA method using a kit obtained from Crystal Chem Inc. (Downers Grove, Ill.). Plasma triglycerides (Biosystems, Barcelona, Spain) and NEFAS (Wako Chemicals, Neuss, Germany) were determined with standard […] methods.
The effect of the oral administration of hexaquis(benzylammonium) decavanadate on glycemia from diabetic rats was also studied. Diabetes was induced in rats by intravenous administration of streptozotocin, and subsequently, a hexaquis(benzylammonium) decavanadate or sodium decavanadate unique dose was administered to the rats. […] After seven days of treatment, the dose was increased at 10 μmol/kg/day which was maintained for an additional ten days. […] Thus, glycemia in sodium decavanadate treated rats was approximately 450 mg/dl and glycemia of hexaquis(benzylammonium) decavanadate treated rats was approximately 250 mg/dl.
(§4) Chronic in vivo efficacy of B6V10 was evaluated in streptozotocin-induced diabetic rats and in db/db mice. Streptozotocin-induced (45 mg/kg) diabetic rats were subcutaneously treated with hexaquis(benzylammonium) decavanadate (2.5 μmol/kg) (B6V10, solid squares, FIG. 8A) or with decavanadate (2.5 μmol/kg) (V10, open circles, FIG. 8A) delivered subcutaneously by osmotic minipumps implanted in the dorsal region. Diabetic rats were also sham-operated (untreated, solid diamonds, FIG. 8A). […] These experiments were repeated using an oral administration protocol. Streptozotocin-induced (45 mg/kg) diabetic rats were orally treated with hexaquis(benzylammonium) decavanadate (5 μmol/kg from day 0 to day 7 and 10 μmol/kg/day from day 7 to day 17) (B6V10, solid squares, FIG. 8B) or received decavanadate (10 μmol/kg) (V10, open circles, FIG. 8B). Nondiabetic rats were also untreated (solid triangles, FIG. 8B).

Assay [2] relates to protein kinase B. Description: Protein kinase B phosphorylation in isolated rat adipocytes. The format is cell-based. The conditions noted are these: 25 μM, rat adipocytes. Here is the method:
Isolated fat cells were disrupted for total membrane preparation by hypo-osmotic lysis in a 20 mM HES buffer and an antiprotease and antiphosphatase cocktail as reported by Abella et al. (2003, Diabetes 52: 1004-1013). Protein concentrations were determined by the Bradford method (Bradford, 1976, Anal. Biochem. 72: 248-254) with gamma-globulin as protein concentration standard. Immunoprecipitation and immunoblot assays were performed as previously described by Abella et al. (2004, Id.) with the use of a monoclonal antiphosphotyrosine antibody for the immunoprecipitation and an anti-insulin receptor antibody for immunoblotting, respectively. SDS-polyacrylamide gel electrophoresis was performed on membrane proteins following conventional procedures. Proteins were transferred to Immobilon and immunoblotting was performed as reported by Castello et al. (1994, J. Biol. Chem. 269: 5905-5912).
The mechanism of action of B6V10 was investigated in isolated rat adipocytes. Adipose cells from Wistar rats were incubated for different times in the presence of 25 μM hexaquis(benzylammonium) decavanadate (B6V10). Cells were also incubated in the presence of insulin (100 nM, 45 min), decavanadate (25 μM, 45 min) or semicarbazide (1 mM, 45 min). Subsequently, 2-deoxyglucose uptake (results shown in FIG. 7A), tyrosine phosphorylation of insulin receptor (FIG. 7B), phospho-Thr^308-protein kinase B (FIG. 7C) and phospho-Ser^473-protein kinase B (FIG. 7D) was measured. […] The phosphorylation of protein kinase B induced by B6V10 was parallel to activation of glucose transport (FIG. 7C and 7D).
(§5) The effects of incubation with semicarbazide or phosphatidylinositol 3-kinase inhibitors were also investigated. Adipose cells were incubated with B6V10 (25 μM, 45 min) in the absence or presence of wortmannin (2 μM, 45 min), LY294002 (10 μM, 45 min) or semicarbazide (1 mM, 45 min) and thereafter 2-deoxyglucose uptake was determined during 5 min.

Assay [3] relates to isolated rat adipocytes. Description: Glucose transport (2-deoxyglucose uptake) in isolated rat adipocytes. The settings on record: isolated rat adipocytes, 45 min incubation. Type of assay: cell-based. Here is the method:
In order to determine whether salts formed by vanadate and benzylamine could produce an insulin mimetic effect, the effect of increasing concentrations of hexaquis(benzylammonium) decavanadate on glucose transport activity in isolated rat adipocytes was tested. […] In similar assays, the activity of hexaquis(benzylammonium) decavanadate, pentaquis(benzylammonium) decavanadate and tetraquis(benzylammonium) decavanadate on glucose transport activity in isolated rat adipocytes were analyzed.
To determine the possible insulin mimetic effect of certain vanadium arylalkylamines, the capacity of these compounds to enhance glucose transport in isolated rat adipocytes was tested. Adipose cells from Wistar rats were incubated for 45 minutes in basal conditions (Basal) or in the presence of 100 nM insulin (Ins), and different concentrations of. hexaquis(benzylammonium) decavanadate (B6V10) in the absence or in the presence of 1 mM semicarbazide (SCZ). Subsequently, 2-DG transport was measured over a 5 min. interval.
The effects of the three tested compounds (B6V10, B5V10 and B4V10) were compared. Adipose cells from Wistar rats were incubated for 45 minutes in basal conditions (Basal) or in the presence of 100 nM insulin (Ins), and different concentrations of. decavanadate (V10), hexaquis(benzylammonium) decavanadate (B6V10), pentaquis(benzylammonium) decavanadate (B5V10) or tetraquis(benzylammonium) decavanadate (B4V10) in the absence or in the presence of 1 mM semicarbazide (SCZ). 2-DG transport was measured over 5 min. intervals. […]
as §5

The subject of assay [4] is streptozotocin-induced diabetic rat with undetectable circulating insulin. Description: Subcutaneous treatment of streptozotocin (100 mg/kg) diabetic rats with undetectable circulating insulin. The format is in vivo. The conditions noted are these: 2.5 μmol/kg subcutaneous minipumps, STZ 100 mg/kg. As for the experimental part:
as §1, §3
To this end, rats were made diabetic by the injection of a large dose of streptozotocin (100 mg/kg) that eliminates β-pancreatic insulin content. […] These streptozotocin-induced diabetic rats were subcutaneously treated with B6V10 (2.5 μmol/kg) (solid squares, FIG. 9A) delivered by osmotic minipumps or left untreated (solid circles, FIG. 9A). Sham-operated nondiabetic rats were also untreated (solid triangles, FIG. 9A).
The concentration of circulating glucose under these conditions was also assayed. After 28 days of treating diabetic rats with hexaquis(benzylammonium) decavanadate (2.5 μmol/kg) (wide striped bars, FIG. 9B), or with decavanadate (close striped bars, FIG. 9B) delivered by osmotic minipumps, plasma insulin and glucose were measured. Untreated diabetic (solid bars, FIG. 9B) or nondiabetic rats (open bars, FIG. 9B) were similarly assayed as controls.

The test system of assay [5] is streptozotocin-induced diabetic rats. Description: Chronic subcutaneous (osmotic minipump) treatment of streptozotocin (45 mg/kg) diabetic rats, glycemia. The conditions noted are these: 2.5 μmol/kg/day by osmotic minipumps, about two weeks, STZ 45 mg/kg rats. The format is in vivo, rat. As for the experimental part: as §1, §2, §3
The effect of chronic administration of hexaquis(benzylammonium) decavanadate on glycemia from diabetic rats was determined. Thus, diabetes was induced in rats by intravenous administration of streptozotocin, which destroys the β-pancreatic cells that produce insulin.
as §4, with “Nondiabetic rats were also untreated (solid triangles, FIG. 8B).” left out

Experimental findings from patent publication US20070066682A1, “Arylalkylamine vanadium (V) salts for the treatment and/or prevention of Diabetes mellitus” (priority 2005, published 2007) are described below.

As to “sodium decavanadate [Entry V10, reference compound]”, the figures for the “glycemia during chronic oral treatment” value in assay [1] and in assay [1] (listed as sodium decavanadate) were “did not alter glycemia” and “not affected substantially”, respectively. Also, in assay [1] (oral treatment, after dose increase to 10 μmol/kg/day), the glycemia entry is listed as “approximately 450 mg/dl”. The “protein kinase B phosphorylation” value in assay [2] is recorded as “not observed”. In addition, the “stimulation of glucose transport (2-DG uptake)” value in assay [3] is listed as “did not stimulate glucose transport”. For the same substance, in assay [4], the “glycemia in diabetic rats with undetectable insulin” value was “did not show any change in circulating glucose”. The “glycemia during chronic subcutaneous treatment” value in assay [5] is reported as “did not alter glycemia”; in assay [5] (listed as sodium decavanadate), “did not modify substantially its glycemia”.
